Like-named read-outs stand apart in the source and are kept apart here.
How the values were obtained:
[1] = tested on: GEO CRC cell line; assay: SRB proliferation assay, 72 h; format: cell-based; settings: Homo sapiens
Description: Cell proliferation was evaluated by SRB following exposure to OSI-906 for 72 hours. Cells were plated at an optimized density in 96-well plates, incubated overnight at 37° C., and then exposed to a serial dilution of OSI-906. After 72 hours incubation, cells were fixed with trichloroacetic acid and an SRB was performed as described in materials and methods.
Cell Lines and Culture: Twenty-seven human colon cancer cell lines, were obtained from American Type Culture Collection (Manassas, Va.). The GEO cells were a generous gift from Dr. Fortunato Ciardiello (Cattedra di Oncologia Medica, Dipartimento Medico-Chirurgico di Internistica Clinica e Sperimentale “F Magrassi e A Lanzara,” Seconda Università degli Studi di Napoli, Naples). All cells except GEO were grown in RPMI medium supplemented with 10% fetal bovine serum, 1% non-essential amino acids, 1% penicillin/streptomycin and were maintained at 37° C. in an incubator under an atmosphere containing 5% CO2. GEO cells were grown in DMEM/F12 supplemented with 10% fetal bovine serum, 1% non-essential amino acids, 1% penicillin/streptomycin. The cells were routinely screened for the presence of mycoplasma (MycoAlert, Cambrex Bio Science, Baltimore, Md.) and were exposed to OSI-906 when they reached approximately 70% confluence. OSI-906 was provided by OSI Pharmaceuticals, (Boulder, Colo.) and prepared as a 10 mM stock solution in DMSO.

[2] = tested on: human tumor explants; assay: In vivo growth study, primary CRC xenografts (human tumor explants); design: species or system athymic nude mice; settings: OSI-906 40 mg/kg, 28 days
Description: In vivo Growth Studies: Five to six-week-old female athymic nude mice (Harlan Sprague Dawley) were used. The research protocol was approved by the University of Colorado Denver, Animal Care and Use Committee. Mice were caged in groups of five and kept on 12-h light/dark cycle and provided with sterilized food and water ad libitum. All of the studies were conducted in accordance with the NIH guidelines for the care and use of laboratory animals, and animals were housed in a facility accredited by the American Association for Accreditation of Laboratory Animal Care. Animals were allowed to acclimate for at least 7 days before any handling.
The primary CRC xenografts were generated according to published methodology (Rubio-Viqueira B, et al. Clin Cancer Res 2006; 12(15):4652-61.). Briefly, surgical specimens of patients operated at the University of Colorado Hospital were reimplanted s.c. to 5 mice for each patient. […] Mice were monitored daily for signs of toxicity and were weighed twice weekly. Tumor size was evaluated two times per week by caliper measurements using the following formula: tumor volume=[length×width^2][…]. Relative tumor growth index was calculated by relative tumor growth of treated mice divided by relative tumor growth of control mice since the initiation of therapy (T/C). […]

[3] = biological target: T1, IGF1R (Homo sapiens, UniProt P08069); assay: Immunoprecipitation and immunoblotting, IGF-2 induced receptor autophosphorylation; format: cell-based; settings: PQIP 0.4 μmol/L 3 h pre-exposure, IGF-2 100 ng/mL 10 minutes
T1 construct: endogenous in cells; host or cells: HT29 and HCT116 CRC cell lines
T1 sequence (P08069 31-1367): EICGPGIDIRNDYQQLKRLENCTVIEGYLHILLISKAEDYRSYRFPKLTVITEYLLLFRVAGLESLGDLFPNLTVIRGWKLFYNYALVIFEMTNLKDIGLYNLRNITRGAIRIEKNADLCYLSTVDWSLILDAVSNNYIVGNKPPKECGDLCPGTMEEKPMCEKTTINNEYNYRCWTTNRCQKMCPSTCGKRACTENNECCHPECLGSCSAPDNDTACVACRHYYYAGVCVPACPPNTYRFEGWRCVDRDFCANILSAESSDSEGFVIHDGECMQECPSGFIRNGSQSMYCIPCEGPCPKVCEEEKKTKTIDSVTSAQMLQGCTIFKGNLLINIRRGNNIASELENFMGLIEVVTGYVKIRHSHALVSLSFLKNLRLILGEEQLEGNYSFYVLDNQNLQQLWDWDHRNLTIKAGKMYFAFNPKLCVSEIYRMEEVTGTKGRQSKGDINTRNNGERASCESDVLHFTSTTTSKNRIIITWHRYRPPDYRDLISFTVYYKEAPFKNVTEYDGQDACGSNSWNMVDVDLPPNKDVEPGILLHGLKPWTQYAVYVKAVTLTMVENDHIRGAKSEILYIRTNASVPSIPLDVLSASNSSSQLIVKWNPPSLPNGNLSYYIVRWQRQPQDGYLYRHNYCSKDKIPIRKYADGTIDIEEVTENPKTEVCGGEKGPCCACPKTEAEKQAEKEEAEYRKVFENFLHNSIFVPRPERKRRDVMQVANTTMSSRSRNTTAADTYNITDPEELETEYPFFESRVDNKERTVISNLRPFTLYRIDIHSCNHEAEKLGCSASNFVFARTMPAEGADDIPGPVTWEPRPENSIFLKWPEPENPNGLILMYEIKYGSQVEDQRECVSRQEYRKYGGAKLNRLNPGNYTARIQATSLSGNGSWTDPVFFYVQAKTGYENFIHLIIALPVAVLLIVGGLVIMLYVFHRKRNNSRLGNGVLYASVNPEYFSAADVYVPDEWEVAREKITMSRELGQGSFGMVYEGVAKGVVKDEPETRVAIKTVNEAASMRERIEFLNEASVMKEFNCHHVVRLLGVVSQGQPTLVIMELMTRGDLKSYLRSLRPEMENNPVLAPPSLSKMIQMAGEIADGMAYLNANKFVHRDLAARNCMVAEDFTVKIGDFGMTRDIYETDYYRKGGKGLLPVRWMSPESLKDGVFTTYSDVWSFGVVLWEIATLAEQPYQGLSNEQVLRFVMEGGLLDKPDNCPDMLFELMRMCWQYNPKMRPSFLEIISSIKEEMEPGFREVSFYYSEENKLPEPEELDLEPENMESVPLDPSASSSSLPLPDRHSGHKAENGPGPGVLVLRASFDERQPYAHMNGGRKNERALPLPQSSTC
Source text: Total protein was quantified using the BioRad Dc Protein Assay (BioRad, Hercules, Calif.).

[4] = tested on: S6 ribosomal protein; assay: Immunoblotting, pathway activation; format: cell-based, human; settings: PQIP 0.4 μmol/L 3 h, with or without IGF-2 stimulation
Description: (§1) Immunoprecipitation and Immunoblotting: HT29 and HCT116 CRC cell lines were seeded into 6-well plates, allowed to attach for 24 hours and serum starved overnight. Cells were then exposed to IGF-2 (100 ng/mL) for 10 minutes with or without a 3 hour PQIP (0.4 μmol/L) pretreatment. After treatment cells were rinsed with PBS and scraped into RIPA lysis buffer containing protease inhibitors, EDTA, NaF, and sodium orthovanadate. Total protein was quantified using the BioRad Dc Protein Assay (BioRad, Hercules, Calif.). Total protein (30 μg) was electrophoresed on a 4-20% gradient SDS-polyacrylimide gel then electrophoretically transferred to Immobilon-P (Millipore, Bedford, Mass.). Membranes were blocked for 1 hour in 5% non-fat dry milk (BioRad, Hercules, Calif.) in TBS-Tween (0.1%) prior to overnight incubation at 4° C. with the appropriate primary antibody. Blots were then washed 3×20 minutes in TBS-Tween (0.1%) and were incubated with the appropriate secondary anti-rabbit or anti-mouse IgG1 horseradish peroxidase-linked antibody at 1:20,000 (Jackson ImmunoResearch, West Grove, Pa.) for one hour at room temperature. After three additional washes, the blots were developed by Immobilon Western Chemiluminescent HRP substrate (Millipore, Billerica, Mass.). Anti-IGF1Rβ rabbit polyclonal (Cell Signaling Technology, Danvers, Mass.) was used for immunoprecipitation at a 1:50 dilution. The following primary antibodies were used for immunoblotting (all from Cell Signaling Technology, Danvers, Mass.). Anti-phosphorylated Akt (T308) rabbit polyclonal, anti-phosphorylated S6 ribosomal protein (S235/236) rabbit mAb, anti-phosphorylated p44/42 MAPK (Thr202/Tyr204) rabbit mAb, and anti-phosphorylated tyrosine mouse mAb at 1:1.000. Anti-Akt (pan) rabbit mAb, anti-S6 ribosomal protein rabbit mAb, anti-p44/42 MAP Kinase rabbit mAb, anti Pan-Actin rabbit polyclonal, anti-IGF1Rβ rabbit polyclonal, anti-PARP rabbit polyclonal, and anti-cyclin D1 rabbit polyclonal at 1:5000.
(§2) Effect of PQIP on receptor phosphorylation and pathway activation: Since PQIP is expected to inhibit autophosphorylation of IGF1R, we tested its ability to inhibit IGF-2 mediated activation of the receptor and pathway. One PQIP sensitive and one PQIP resistant CRC cell line were chosen for immunoprecipitation and immunoblotting analysis. Following 18 h serum starvation, HT29 and HCT116 CRC cell lines were stimulated or unstimulated for 10 minutes with 100 ng/mL of IGF-2 with or without a 3 h pre-exposure to PQIP (0.4 μmol/L).

[5] = tested on: Akt; assay: Immunoblotting, pathway activation; format: cell-based, human; settings: PQIP 0.4 μmol/L 3 h, with or without IGF-2 stimulation
Description: as §1, §2

Compound	IC50 ([1]; 72 hours, read-out: IC50, proliferation, OSI-906 (SRB)) [nM]	IC50 ([1]; read-out: S/I/R to OSI-906) [nM]	TGI (relative tumor growth index, T/C) ([2]; three explants predicted as resistant)	TGI (relative tumor growth index, T/C) ([2]; two explants predicted as sensitive)	IGF-2 induced tyrosine autophosphorylation of IGF1R ([3]; HCT116)	IGF-2 induced tyrosine autophosphorylation of IGF1R ([3]; HT29)	phosphorylation of S6 ribosomal protein ([4]; HCT116)	phosphorylation of S6 ribosomal protein ([4]; HT29)	phosphorylation of Akt ([5]; HCT116)	phosphorylation of Akt ([5]; HT29)
C[C@]1(O)C[C@@H](c2nc(-c3ccc4ccc(-c5ccccc5)nc4c3)c3c(N)nccn32)C1 [OSI-906, cis-3-[8-amino-1-(2-phenyl-quinolin-7-yl)-imidazo[1,5-a]pyrazin-3-yl]-1-methyl-cyclobutanol]	≤ 1500	≤ 1500	130-200%	21-28%						
CN1CCN([C@H]2C[C@@H](c3nc(-c4ccc5ccc(-c6ccccc6)nc5c4)c4c(N)nccn43)C2)CC1 [PQIP, cis-3-[3-(4-Methyl-piperazin-1-yl)-cyclobutyl]1-(2-phenyl-quinolin-7-yl)-imidazo[1,5-a]pyrazin-8-ylamine]					almost fully inhibits	almost fully inhibits	inhibits	inhibits	inhibits	inhibits

Reference: patent US8163509B2, “Biological markers predictive of anti-cancer response to insulin-like growth factor-1 receptor kinase inhibitors” (The Regents of the University of Colorado, A Body Corporate, priority 2008, dated 2012)
